Entries after “also recorded” stand apart in the source; their conditions may differ. Marks after values point to notes of the source that are not given here.

The subject of series [1] is Neurons of the ventrobasal nuclei (thalamocortical neurons). The series can be described thus: Current- and voltage-clamp recording of thalamic neurons in in vitro slice preparations. The note with it: for equilibrium potential for the drug (intersection of drug and control I-V curves): voltage clamp, vs aCSF control curve.
In the next series the test system is mice. The series can be described thus: Sedation observed during the formalin foot test, intrathecal application. As to the method:
At the same time as the analgesia was accessed, the sedation effects of ACBC were determined in the acute and chronic peripheral pain formalin foot model. […] The mice were monitored for 40 min for sedation. aCSF and morphine controls were also tested. The presence or absence of sedation was determined by an observer blinded to the treatment based on degree of spontaneous activity, posture and response to normal stimuli.

For series [2], the system named is formalin foot mice. Nature of the series: Formalin foot acute and chronic peripheral pain model, subcutaneous injection, up and down method. The note with it: Mus musculus, sc; subcutaneously, 5 minutes prior to formalin; up and down method of Dixon and Mood; block = 60% decrease of cumulated licking; read-out: ED50 for the reduction of paw licking by 60%. It is filed as in vivo. As to the method:
This model involves pre-treatment with the test compound and injection of formalin (5% in 20 microliters) into the right hindpaw of mice. ACBC was injected subcutaneously 5 minutes prior to formalin injection. […] The up and down method of Dixon and Mood was used to establish the ED50.

Series [3] concerns formalin foot mice. The series can be described thus: Formalin foot acute and chronic peripheral pain model, intrathecal application.
The mark [4] stands for this setting: ACBC 5 μL of 250 μM 5 minutes before formalin 5% in 20 μL hindpaw, N=5, P<0.05 vs control.
The mark [5] stands for this setting: ACBC 1 μM, normalized to control 5 minutes prior to drug application, single neuron.

`NCC(=O)O` [Glycine, reference compound]: in series [1] (Glycine 150 μM), the “slope of the I-V curve” value is “increased the slope of the I-V curve”; the “equilibrium potential for the drug (intersection of drug and control I-V curves)” value is reported as −53 mV.

In the case of `NC1(C(=O)O)CCC1` [ACBC, 1-amino-cyclobutane-1-carboxylic acid], in the series with mice (mouse, in vivo), the behavioral toxicity entry is given as “no observed behavioral toxicity”; the “sedation / gross appearance and behavior (in words)” value is on record as “No sedation occurred”. Moreover, in the series with mice (mouse, in vivo, 40 min), the “Number of mice with sedation” value was 0*. The ED50 in the series with formalin foot mice [2] came out at 94 mg/kg. Further, in the series with formalin foot mice [3] (setting [4]), the “phase I licking (early phase, acute pain)” value is given as “significantly reduced; also recorded: greatly reduces” and the “phase II licking (late phase, chronic pain)” value is recorded as “significantly reduced; also recorded: greatly reduces”. Moreover, in the series on formalin foot mice [3] (ACBC 5 μL of 250 μM, monitored 40 minutes, p<0.05), the cumulative paw licking result is “significantly reduced”. For the same molecule, the “analgesia compared with morphine, acute and chronic phases” value in the series with formalin foot mice [3] (formalin foot test) was “equal to that produced by morphine”. In series [1] (ACBC 1 μM), the “slope of the I-V curve” value is given as “increased the slope of the I-V curve”; the “equilibrium potential for the drug (intersection of drug and control I-V curves)” value was −92 mV. Also, the “holding current 20 minutes after application” value in series [1] (ACBC 1 μM, 3 min application, voltage-clamped at −60 mV, control 33 pA) is 153 pA. Moreover, in series [1] (setting [5]), the “Input resistance (Ri)” value is on record as “increase in membrane input resistance; also recorded: decreased” and the “Membrane potential (Vm)” value is recorded as “decreased”. Also, the “tonic firing evoked by current pulse injection” value in series [1] (ACBC 1 μM, ventrobasal thalamus, holding potential −60 mV) is listed as “depressed action potential firing; also recorded: depressed tonic firing”. For the same molecule, in series [1] (voltage clamped neurons), the “persistence of induced outward current” value was “greater than 60 minutes”.

Turning to `CN1CC[C@]23c4c5ccc(O)c4O[C@H]2[C@@H](O)C=C[C@H]3[C@H]1C5` [Morphine, reference compound], in the series with mice (intrathecal, acute and chronic phase of formalin foot test), the “sedation / gross appearance and behavior (in words)” value is listed as “nearly immobile”. Besides, the “Number of mice with sedation” value with mice (of 5 mice, intrathecal (ACBC 5 μL of 250 μM), monitored 40 min, blinded observer) is given as 5. Moreover, the “phase I licking (early phase, acute pain)” value in the series with formalin foot mice [3] (setting [4]) is “Morphine <control”.

The values are drawn from patent US20140094446A1, “Cyclic Amino Acids for the Treatment of Pain” (Therexcell Pharma Inc., priority 2008, published 2014).
